Results taken from PMC5541560, “A biomimetic semisynthesis enables structural elucidation of selaginellin U: a tautomeric cyclic alkynylphenol from Selaginella tamariscina” (Royal Society Open Science, 2017).

Legend:
[1] = molecular target: T1, β-site amyloid precursor protein cleaving enzyme 1 (BACE1) (Homo sapiens, UniProt P56817); test: biochemical; design: FRET peptide substrate cleavage assay (Sigma kit CS0010), purified baculovirus-expressed BACE1, inhibition
Method: Compounds 1–3 and 7–16 were tested for β-site amyloid precursor protein (APP) cleaving enzyme 1 (BACE1) inhibitory activity. BACE1 inhibitory evaluation was performed with a fluorescence resonance energy transfer (FRET) assay kit supplied by Sigma (Kit CS0010, St. Louis, USA). The kit used purified baculovirus-expressed BACE1 and FRET peptide substrates.

[2] = molecular target: T1, β-site amyloid precursor protein cleaving enzyme 1 (BACE1); test: FRET peptide substrate assay (Sigma kit CS0010), purified baculovirus-expressed BACE1; type: biochemical

T1 sequence (P56817 46-457): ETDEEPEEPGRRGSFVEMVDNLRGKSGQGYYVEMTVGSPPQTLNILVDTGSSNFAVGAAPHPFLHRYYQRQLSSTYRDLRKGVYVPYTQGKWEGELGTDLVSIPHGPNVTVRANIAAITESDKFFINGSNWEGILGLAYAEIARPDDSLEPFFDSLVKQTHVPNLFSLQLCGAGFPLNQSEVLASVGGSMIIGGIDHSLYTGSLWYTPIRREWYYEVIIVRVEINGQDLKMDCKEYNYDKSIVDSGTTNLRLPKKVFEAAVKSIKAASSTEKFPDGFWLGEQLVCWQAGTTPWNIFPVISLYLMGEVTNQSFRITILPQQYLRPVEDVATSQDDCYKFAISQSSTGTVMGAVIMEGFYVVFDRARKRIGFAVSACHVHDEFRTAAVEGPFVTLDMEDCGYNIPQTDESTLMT

Structure (SMILES)	IC50 [1]	IC50 [2]
O=C1OC(c2ccc(O)cc2)(c2ccc(O)cc2)c2c1cccc2-c1ccc(O)cc1 [compound 1, selaginellin T]	> 100 µM	
O=C1C=CC(=C(c2ccc(O)cc2)c2c(-c3ccc(O)cc3)ccc3c(=O)oc(-c4ccc(O)cc4)cc23)C=C1 [compound 2, selaginellin U]	> 100 µM	
O=C1C=CC(=C(c2ccc(O)cc2)c2c(-c3ccc(O)cc3)ccc(CO)c2C#Cc2ccc(O)cc2)C=C1 [compound 3, selaginellin]		81.2 µM
OCc1ccc2c(c1C#Cc1ccc(O)cc1)C(c1ccc(O)cc1)(c1ccc(O)cc1)c1cc(O)ccc1-2 [compound 7, selaginpulvilin A]	> 100 µM	
Cc1ccc(-c2ccc(O)cc2)c(C(=C2C=CC(=O)C=C2)c2ccccc2)c1C#Cc1ccc(O)cc1 [compound 12, selaginellin A]	> 100 µM	
Cc1ccc(-c2ccc(O)cc2)c(C(=C2C=CC(=O)C=C2)c2ccc(O)cc2)c1C#Cc1ccc(O)cc1 [compound 13, selaginellin B]		51.1 µM
COc1ccc(C(=C2C=CC(=O)C=C2)c2c(-c3ccc(O)cc3)ccc(CO)c2C#Cc2ccc(O)cc2)cc1 [compound 15, selaginellin M]	> 100 µM	
O=Cc1ccc(-c2ccc(O)cc2)c(C(=C2C=CC(=O)C=C2)c2ccc(O)cc2)c1C#Cc1ccc(O)cc1 [compound 16, selaginellin O]		48.9 µM
